From ChEMBL document CHEMBL5104171 (Bioorg Med Chem Lett, 2022)
In brackets after ≈: the same amount, converted by molar mass. Values belong to the molecule of their own block, whether it stands above or below them.

Experiments:
[1] = Inhibition of RANKL-induced human osteoclast precursor cells differentiation in presence of human M-CSF and measured by tartrate-resistant acid phosphatase activity assay; type: functional, cell-based
[2] = Plasma concentration in DBA/1 mouse at 15 mg/kg, po administered once daily for 6 days and measured at 2 hrs; type: ADME, organism-based; conditions: time 6 day
[3] = Plasma concentration in DBA/1 mouse at 15 mg/kg, po administered once daily for 6 days and measured at 4 hrs; type: ADME, organism-based; conditions: time 6 day
[4] = Plasma concentration in DBA/1 mouse at 15 mg/kg, po administered once daily for 6 days and measured at 6 hrs; type: ADME, organism-based; conditions: time 6 day
[5] = Plasma concentration in DBA/1 mouse at 15 mg/kg, po administered once daily for 6 days and measured at 8 hrs; type: ADME, organism-based; conditions: time 6 day
[6] = Plasma concentration in DBA/1 mouse at 15 mg/kg, po administered once daily for 6 days and measured at 12 hrs; type: ADME, organism-based; conditions: time 6 day
[7] = Plasma concentration in DBA/1 mouse at 15 mg/kg, po administered once daily for 6 days and measured at 18 hrs; type: ADME, organism-based; conditions: time 6 day
[8] = Plasma concentration in DBA/1 mouse at 15 mg/kg, po administered once daily for 6 days and measured at 24 hrs; type: ADME, organism-based; conditions: time 6 day
[9] = Aqueous solubility of compound at pH 7.4; type: physicochemical
[10] = Permeability across apical to basolateral side in human Caco-2 cells; type: ADME, cell-based; conditions: read-out: permeability
[11] = Plasma protein binding in mouse; type: ADME, cell-free; conditions: read-out: PPB (converted)
[12] = Plasma protein binding in human; type: ADME, cell-free; conditions: read-out: PPB (converted)
[13] = Metabolic stability in mouse liver microsomes assessed as compound remaining at 60 mins; type: ADME, Microsome; conditions: read-out: Stability
[14] = Metabolic stability in human liver microsomes assessed as compound remaining at 60 mins; type: ADME, Microsome; conditions: read-out: Stability
animal or person [15] = conditions: Mus musculus, DBA/1, 144 h, read-out: INH
animal or person [16] = conditions: Mus musculus, DBA/1, 144 h, read-out: INH; remark: listed apart in the source
animal or person [17] = conditions: Mus musculus, DBA/1, 144 h, read-out: INH; remark: listed apart in the source
animal or person [18] = conditions: Mus musculus, DBA/1, 144 h, read-out: INH; remark: listed apart in the source
animal or person [19] = conditions: Mus musculus, DBA/1, 144 h, read-out: INH; remark: listed apart in the source
animal or person [20] = conditions: Mus musculus, DBA/1, 144 h, read-out: INH; remark: listed apart in the source
animal or person [21] = conditions: Mus musculus, DBA/1, 144 h, read-out: INH; remark: listed apart in the source
[22] = biological target: Hepatocyte growth factor receptor (Homo sapiens, UniProt P08581); experiment: Inhibition of N-terminal His-Glu-TEV-tagged MET (unknown origin) (1050 to 1360 residues) measured by spectrophotometric analysis
Hepatocyte growth factor receptor, sequence (P08581 whole entry, the tested form may be a part): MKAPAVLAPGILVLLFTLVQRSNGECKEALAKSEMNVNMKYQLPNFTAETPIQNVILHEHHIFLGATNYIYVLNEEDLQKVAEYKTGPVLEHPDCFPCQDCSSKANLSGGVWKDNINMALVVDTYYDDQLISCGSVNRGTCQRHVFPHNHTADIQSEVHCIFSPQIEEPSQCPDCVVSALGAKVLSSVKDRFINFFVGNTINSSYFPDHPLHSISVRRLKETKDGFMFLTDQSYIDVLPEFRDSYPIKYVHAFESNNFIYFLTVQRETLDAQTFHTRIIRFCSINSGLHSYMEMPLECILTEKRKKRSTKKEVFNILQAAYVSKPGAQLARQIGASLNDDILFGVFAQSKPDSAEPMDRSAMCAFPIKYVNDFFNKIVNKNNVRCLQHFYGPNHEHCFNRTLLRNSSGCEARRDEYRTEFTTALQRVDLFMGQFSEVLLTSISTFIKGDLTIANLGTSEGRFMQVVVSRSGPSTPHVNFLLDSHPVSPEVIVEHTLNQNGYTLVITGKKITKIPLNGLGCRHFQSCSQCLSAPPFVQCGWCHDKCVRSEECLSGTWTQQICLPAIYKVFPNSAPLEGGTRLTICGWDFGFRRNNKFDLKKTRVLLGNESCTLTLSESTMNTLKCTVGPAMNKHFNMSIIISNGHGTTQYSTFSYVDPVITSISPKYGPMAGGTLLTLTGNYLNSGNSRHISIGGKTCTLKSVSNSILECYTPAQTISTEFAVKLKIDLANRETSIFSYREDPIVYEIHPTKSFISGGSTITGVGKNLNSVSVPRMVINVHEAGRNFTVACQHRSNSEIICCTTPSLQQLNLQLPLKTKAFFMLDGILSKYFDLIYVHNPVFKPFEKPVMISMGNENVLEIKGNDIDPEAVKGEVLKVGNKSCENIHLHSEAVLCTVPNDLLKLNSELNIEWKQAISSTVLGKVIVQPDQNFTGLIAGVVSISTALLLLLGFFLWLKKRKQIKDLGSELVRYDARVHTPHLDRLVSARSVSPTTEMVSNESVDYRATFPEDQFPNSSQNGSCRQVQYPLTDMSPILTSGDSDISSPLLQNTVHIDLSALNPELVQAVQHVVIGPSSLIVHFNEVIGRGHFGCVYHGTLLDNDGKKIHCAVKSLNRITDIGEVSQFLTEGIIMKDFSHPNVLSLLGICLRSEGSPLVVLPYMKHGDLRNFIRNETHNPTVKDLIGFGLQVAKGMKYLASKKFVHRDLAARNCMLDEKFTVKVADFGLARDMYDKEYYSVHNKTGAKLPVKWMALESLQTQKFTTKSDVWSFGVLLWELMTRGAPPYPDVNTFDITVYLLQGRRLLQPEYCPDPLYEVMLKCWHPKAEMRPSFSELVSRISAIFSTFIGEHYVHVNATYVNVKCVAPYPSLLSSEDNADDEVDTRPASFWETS

IC50 [1]: 1.7 nM
SMILES: CN(C)CC(=O)N1CCC(c2ccc(NC(=O)c3nc(C#N)c[nH]3)c(C3=CCCCC3)c2)CC1

concentration at 144 h [2]: 2250 ng/mL | concentration at 144 h [3]: 1860 ng/mL | concentration at 144 h [4]: 1430 ng/mL | concentration at 144 h [5]: 1350 ng/mL | concentration at 144 h [6]: 163 ng/mL | concentration at 144 h [7]: 125 ng/mL | concentration at 144 h [8]: 86 ng/mL | solubility [9]: 95.6 µM (≈ 39 µg/mL) | Papp A→B [10]: 13.9 ×10⁻⁶ cm/s | fraction unbound [11]: 0.041 | fraction unbound [12]: 0.023 | remaining at 1 h [13]: 91% | remaining at 1 h [14]: 100%
SMILES: Cc1nc(NC(=O)NC(=O)C(C)(C)C)ccc1Oc1ccnc(-c2cnn(C)c2)c1
inhibition in vivo at 15 mg/kg (animal or person [15]): 88% | inhibition in vivo at 15 mg/kg (animal or person [16]): 89% | inhibition in vivo at 15 mg/kg (animal or person [17]): 94% | inhibition in vivo at 15 mg/kg (animal or person [18]): 75% | inhibition in vivo at 15 mg/kg (animal or person [19]): 14% | inhibition in vivo at 15 mg/kg (animal or person [20]): 18% | inhibition in vivo at 15 mg/kg (animal or person [21]): -4%

IC50 [22]: > 3.3 µM
SMILES: FC(F)(F)c1ccc(CNc2ccc(Cc3c[nH]c4ncc(Cl)cc34)cn2)cn1 [PEXIDARTINIB]
